Here are results for 1 substance from patent publication US9638702B2 (priority 2001, dated 2017).

Like-named read-outs stand apart in the source and are kept apart here.

Data set [1] is classed as physicochemical.
The format of data set [2] is physicochemical. This is another data set of the same source.

Take poly-L-lysine: the values for the CD minimum entry in data set [1] (pH 7) and in data set [1] (pH 11) were “approximately 205 nm” and “approximately 216 nm”, respectively. The results for the absorbance plateau entry in data set [2] (pH 7) and in data set [2] (pH 11) were “approximately 0.22” and “approximately 0.12”, respectively.
